The values that follow come from patent US20100120763A1, “IMIDAZO[5,1-C][1,2,4]BENZOTRIAZINE DERIVATIVES AS INHIBITORS OF PHOSPHODIESTERASES” (priority 2008, published 2010).

Like-named read-outs stand apart in the source and are kept apart here.

One assay has as its target T1, PDE10A (Homo sapiens, UniProt Q9Y233).
T1 construct: made in house; host or cells: SF21 insect cells (baculovirus)
Put plainly: Inhibition of recombinant PDE10A (baculovirus/SF21 system), [3H]-cAMP SPA. In kind it is biochemical. To be noted: read-out: PDE10A IC50. The protocol:
Inhibition of Recombinant PDE10A (Baculovirus/SF21 System)
The gene was than inserted into a baculovirus vector, ligated with the baculovirus DNA. The enzyme-protein was expressed in SF21-cells. The enzyme was isolated from these cells by harvesting the cells by an centrifugation at 500 g to collect the cells.
The cells were resuspended in 50 mM Tris-HCl/1 mM EDTA/250 mM Sucrose buffer, pH=7.4 (Sigma, Deisenhofen, Germany; Merck, Darmstadt, Germany) and lysed by sonification of the cells (three times for 15 seconds, Labsonic U, Fa. Braun, Degersheim, Switzerland, level “high”). The cytosolic PDE10A was obtained by a centrifugation at 48,000 g for 1 h in the supernatant and stored at −70° C.
PDE activity was determined in a one step procedure in microtiter plates. The reaction mixture of 100 μl contained 50 mM Tris-HCl/5 mM MgCl2 buffer (pH=7.4, Sigma, Deisenhofen, Germany; Merck, Darmstadt, Germany) 0.1 μM [3H]-cAMP (Amersham, Buckinghamshire, UK) and the enzyme. Non-specific enzyme activity was determined without the enzyme. The reaction was initiated by addition of the substrate solution and was carried out at 37° C. for 30 minutes. Enzymatic activity then was stopped by addition of 25 μl Ysi-SPA-beads (Amersham-Pharmacia). One hour later the mixture was measured in a liquid scintillation counter for microtiter plates (Microbeta Trilux). The Biomek 2000 (Beckman) was used routinely for pipetting of the incubation mixture. […] For determination of IC50 values the Hill-plot, 2-parameter-model, was used.

The next assay deals with T2, PDE2A (Homo sapiens, UniProt O00408).
T2 construct: made in house; host or cells: SF21 insect cells (baculovirus)
Put plainly: Inhibition of recombinant PDE2A (expressed in baculovirus/SF21-cells), [3H]-cAMP SPA. The format is biochemical. The procedure: Inhibition of Recombinant PDE2A (Expressed in Baculovirus/SF21-Cells)
PDE2A (NM002599) was cloned and the gene was inserted in the baculovirus and the enzyme-protein expressed in SF21-cells. The enzyme was isolated from these cells by harvesting the cells by an centrifugation at 200 g to collect the cells. The cells were resuspended in 50 mM Tris-HCl/5 mM MgCl2 buffer (pH=7.4) (Sigma, Deisenhofen, Germany; Merck, Darmstadt, Germany) and lysed by a sonication of the cells (three times for 15 seconds, Labsonic U, Fa. Braun, Degersheim, Switzerland, level “high”). The membrane fraction of PDE2A was obtained by a centrifugation at 48 000 g for 1 h, resuspended in buffer and stored at −70° C.
PDE2A activity was determined in a one step procedure in microtiterplates. The reaction mixture of 100 μl contained 50 mM Tris-HCl/5 mM MgCl2 buffer (pH=7.4) (Sigma, Deisenhofen, Germany; Merck, Darmstadt, Germany), 0.5 μM [3H]-cAMP (Amersham, Buckinghamshire, UK), 1000 nM cGMP and the enzyme. Non-specific enzyme activity was tested in the absence of cGMP. The reaction was initiated by addition of the substrate solution and was carried out at 37° C. for 30 minutes. Enzymatic activity then was stopped by addition of 25 μl SPA-beads (Amersham-Pharmacia). One hour later the mixture was measured in a liquid scintillation counter for microtiterplates (Microbeta Trilux). For pipetting of the incubation mixture the robot Biomek (Fa. Beckman) was routinely used.
For determination of IC50 values the Hill-plot, 2-parameter-model, was used.

Setting [1] is: recombinant PDE10A1, cytosolic, 0.1 μM [3H]-cAMP, 37° C., 30 minutes.

T1 sequence (Q9Y233 1-779 isoform Q9Y233-1): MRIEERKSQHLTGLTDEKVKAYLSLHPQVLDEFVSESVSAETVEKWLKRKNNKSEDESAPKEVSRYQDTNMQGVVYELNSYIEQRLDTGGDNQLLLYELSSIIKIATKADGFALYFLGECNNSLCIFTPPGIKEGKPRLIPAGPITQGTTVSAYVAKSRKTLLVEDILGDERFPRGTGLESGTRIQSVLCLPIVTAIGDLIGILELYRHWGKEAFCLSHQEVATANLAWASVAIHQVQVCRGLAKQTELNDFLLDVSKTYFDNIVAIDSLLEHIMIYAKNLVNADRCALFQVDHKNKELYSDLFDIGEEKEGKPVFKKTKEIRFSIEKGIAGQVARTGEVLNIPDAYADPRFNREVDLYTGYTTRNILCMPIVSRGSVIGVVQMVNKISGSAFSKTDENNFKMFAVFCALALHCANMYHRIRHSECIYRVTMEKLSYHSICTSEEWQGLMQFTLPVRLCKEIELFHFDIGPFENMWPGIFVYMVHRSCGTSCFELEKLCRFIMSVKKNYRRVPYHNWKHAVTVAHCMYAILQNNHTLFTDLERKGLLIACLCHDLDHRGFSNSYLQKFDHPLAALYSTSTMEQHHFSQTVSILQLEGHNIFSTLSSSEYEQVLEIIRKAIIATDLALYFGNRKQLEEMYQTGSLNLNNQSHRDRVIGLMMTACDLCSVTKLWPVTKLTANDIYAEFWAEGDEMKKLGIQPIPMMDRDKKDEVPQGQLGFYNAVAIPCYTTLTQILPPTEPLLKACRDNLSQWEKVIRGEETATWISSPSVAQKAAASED
T2 sequence (O00408 whole entry): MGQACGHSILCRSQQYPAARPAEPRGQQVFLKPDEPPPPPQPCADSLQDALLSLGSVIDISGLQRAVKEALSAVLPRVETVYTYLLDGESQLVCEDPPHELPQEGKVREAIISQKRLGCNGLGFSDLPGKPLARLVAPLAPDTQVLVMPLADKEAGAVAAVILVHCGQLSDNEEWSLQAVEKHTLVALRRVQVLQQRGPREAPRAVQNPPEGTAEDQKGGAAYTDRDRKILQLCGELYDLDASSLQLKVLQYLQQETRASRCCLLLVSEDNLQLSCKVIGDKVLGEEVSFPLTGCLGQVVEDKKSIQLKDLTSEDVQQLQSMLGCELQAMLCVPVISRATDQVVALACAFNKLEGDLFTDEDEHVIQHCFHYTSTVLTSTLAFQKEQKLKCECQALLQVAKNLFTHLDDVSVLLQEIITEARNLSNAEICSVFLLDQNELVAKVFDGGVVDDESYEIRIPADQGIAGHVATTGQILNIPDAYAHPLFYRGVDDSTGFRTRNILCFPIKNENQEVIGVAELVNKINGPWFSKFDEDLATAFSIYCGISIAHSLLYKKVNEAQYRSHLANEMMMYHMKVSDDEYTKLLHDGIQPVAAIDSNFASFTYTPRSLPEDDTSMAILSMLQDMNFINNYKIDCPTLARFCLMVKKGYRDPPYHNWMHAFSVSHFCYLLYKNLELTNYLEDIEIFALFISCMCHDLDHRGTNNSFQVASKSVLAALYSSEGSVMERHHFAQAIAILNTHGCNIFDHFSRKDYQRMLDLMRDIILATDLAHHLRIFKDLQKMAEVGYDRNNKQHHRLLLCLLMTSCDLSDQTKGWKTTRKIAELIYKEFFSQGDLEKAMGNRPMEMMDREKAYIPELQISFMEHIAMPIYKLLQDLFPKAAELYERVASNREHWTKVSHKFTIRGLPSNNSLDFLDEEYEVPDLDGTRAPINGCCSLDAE

For “8-fluoro-1-isobutyl-3-methylbenzo[e]imidazo[5,1-c][1,2,4]triazine [Example 9]”, the 50% inhibitory concentration (IC50) (commonly the concentration that inhibits the measured activity by half) on PDE10A (setting [1]) was 0.156 µM; at PDE2A (recombinant PDE2A, membrane fraction, 0.5 μM [3H]-cAMP, 1000 nM cGMP, 37° C., 30 minutes, read-out: PDE2A IC50) it was 0.302 µM.
In the case of “8-fluoro-6-methoxy-3-methyl-1-(2-methylpyridin-3-yl)imidazo[5,1-c][1,2,4]benzotriazine [Example 130]”, the 50% inhibitory concentration (IC50) on PDE10A came out at 0.00784 µM.
“8-fluoro-6-methoxy-3-methyl-1-(3-methylpyridin-4-yl)imidazo[5,1-c][1,2,4]benzotriazine [Example 131]”: the IC50 on PDE10A (setting [1]) came to 0.0072 µM.
As to `COc1cc(OC)c2nnc3c(C)nc(-c4cnccc4C)n3c2c1` [Example 45, 6,8-dimethoxy-3-methyl-1-(4-methylpyridin-3-yl)imidazo[5,1-c][1,2,4]benzotriazine], the results for the half-maximal inhibitory concentration (IC50) at PDE10A (setting [1]) and at PDE2A were 0.00416 µM and 0.775 µM, respectively.
Turning to `COc1cc(OC)c2nnc3c(C)nc(-c4ccncc4C)n3c2c1` [Example 47, 6,8-dimethoxy-3-methyl-1-(3-methylpyridin-4-yl)-imidazo[5,1-c][1,2,4]benzotriazine], the half-maximal inhibitory concentration (IC50) at PDE10A (setting [1]) was found to be 0.00206 µM; at PDE2A it was 0.589 µM.
With `COc1cc(OC)c2nnc3c(C)nc(-c4cccnc4C)n3c2c1` [Example 48, 6,8-dimethoxy-3-methyl-1-(2-methylpyridin-3-yl)imidazo[5,1-c][1,2,4]benzotriazine], the 50% inhibitory concentration (IC50) at PDE10A (setting [1]) was 0.00148 µM; on PDE2A, 0.196 µM.
For `COc1cc(OC)c2nnc3c(C)nc(-c4c(C)n[nH]c4C)n3c2c1` [Example 51, 1-(3,5-dimethyl-1H-pyrazol-4-yl)-6,8-dimethoxy-3-methylimidazo[5,1-c][1,2,4]benzotriazine], in that order: 0.0007 µM and 0.21 µM.
Take `COc1cc(OC)c2nnc3c(C)nc(-c4c(C)nn(C)c4C)n3c2c1` [Example 52, 6,8-dimethoxy-3-methyl-1-(1,3,5-trimethyl-1H-pyrazol-4-yl)imidazo[5,1-c][1,2,4]benzotriazine]: the IC50 on PDE10A (setting [1]) was 0.00185 µM; on PDE2A it was 0.292 µM.
For `COc1cccc2c1nnc1c(C)nc(-c3ccccc3C)n12` [Example 60, 6-methoxy-3-methyl-1-(2-methylphenyl)imidazo[5,1-c][1,2,4]benzotriazine], in that order: 0.00331 µM and 0.172 µM.
For `COc1cccc2c1nnc1c(C)nc(-c3ccccc3Cl)n12` [Example 61, 1-(2-chlorophenyl)-6-methoxy-3-methylbenzo[e]imidazo[5,1-c][1,2,4]triazine] the same measures were 0.00241 µM and 0.103 µM.
For `COc1cccc2c1nnc1c(C)nc(-c3ccncc3C)n12` [Example 62, 6-methoxy-3-methyl-1-(3-methylpyridin-4-yl)imidazo[5,1-c][1,2,4]benzotriazine] the same measures were 0.00834 µM and 0.442 µM.
Take `COc1cc(N2CCOCC2)cc2c1nnc1c(C)nc(-c3ccncc3C)n12` [Example 63, 6-methoxy-3-methyl-1-(3-methylpyridin-4-yl)-8-morpholin-4-ylimidazo[5,1-c][1,2,4]benzotriazine]: the half-maximal inhibitory concentration (IC50) stood at 0.00399 µM at PDE10A (setting [1]) and 0.437 µM at PDE2A.
For `COc1cc(N2CCOCC2)cc2c1nnc1c(C)nc(-c3cccnc3C)n12` [Example 64, 6-methoxy-3-methyl-1-(2-methylpyridin-3-yl)-8-morpholin-4-ylimidazo[5,1-c][1,2,4]benzotriazine], in that order: 0.00192 µM and 0.0704 µM.
For `COc1cc(N2CCOCC2)cc2c1nnc1c(C)nc(-c3ccccc3Cl)n12` [Example 65, 1-(2-chlorophenyl)-6-methoxy-3-methyl-8-morpholin-4-ylimidazo[5,1-c][1,2,4]benzotriazine] the same measures were 0.00085 µM and 0.0504 µM.
For `COc1cc(N2CCOCC2)cc2c1nnc1c(C)nc(-c3ccccc3C)n12` [Example 66, 6-methoxy-3-methyl-1-(2-methylphenyl)-8-morpholin-4-ylimidazo[1,5-c][1,2,4]benzotriazine], in that order: 0.00153 µM and 0.11 µM.
`COc1cccc(-c2nc(C)c3nnc4c(F)cc(OC)cc4n23)c1` [Example 67, 6-fluoro-8-methoxy-1-(3-methoxyphenyl)-3-methylimidazo[5,1-c][1,2,4]benzotriazine]: the IC50 at PDE10A (setting [1]) amounted to 0.0168 µM; on PDE2A, 0.0648 µM.
For `COc1cc(F)c2nnc3c(C)nc(-c4cc(Cl)ccc4OC)n3c2c1` [Example 68, 1-(5-chloro-2-methoxyphenyl)-6-fluoro-8-methoxy-3-methylimidazo[5,1-c][1,2,4]benzotriazine], in that order: 0.0642 µM and 0.109 µM.
For `COc1cc(F)c2nnc3c(C)nc(-c4ccc(F)cc4C)n3c2c1` [Example 69, 6-fluoro-1-(4-fluoro-2-methylphenyl)-8-methoxy-3-methylimidazo[5,1-c][1,2,4]benzotriazine], in that order: 0.0347 µM and 0.0555 µM.
On to `COc1cc(F)c2nnc3c(C)nc(-c4ccc(F)cc4Cl)n3c2c1` [Example 70, 1-(2-chloro-4-fluorophenyl)-6-fluoro-8-methoxy-3-methylimidazo[5,1-c][1,2,4]benzotriazine], for which the half-inhibitory concentration (IC50) turned out to be 0.0125 µM at PDE10A (setting [1]) and 0.0228 µM on PDE2A.
For `COc1cc(F)c2nnc3c(C)nc(-c4ccc(C)cc4Cl)n3c2c1` [Example 71, 1-(2-chloro-4-methylphenyl)-6-fluoro-8-methoxy-3-methylimidazo[5,1-c][1,2,4]benzotriazine] the same measures were 0.0114 µM and 0.00553 µM.
Regarding `COc1cc(F)c2nnc3c(C)nc(-c4cc(C)ccc4Cl)n3c2c1` [Example 72, 1-(2-chloro-5-methylphenyl)-6-fluoro-8-methoxy-3-methylimidazo[5,1-c][1,2,4]benzotriazine], the half-inhibitory concentration (IC50) at PDE10A (setting [1]) turned out to be 0.00777 µM; on PDE2A it was 0.0144 µM.
For `COc1cc(F)c2nnc3c(C)nc(-c4cc(F)ccc4C)n3c2c1` [Example 73, 6-fluoro-1-(5-fluoro-2-methylphenyl)-8-methoxy-3-methylimidazo[5,1-c][1,2,4]benzotriazine], in that order: 0.0189 µM and 0.0151 µM.
For `COc1cc(F)c2nnc3c(C)nc(-c4ccc(C)cc4F)n3c2c1` [Example 74, 6-fluoro-1-(2-fluoro-4-methylphenyl)-8-methoxy-3-methylimidazo[5,1-c][1,2,4]benzotriazine] the same measures were 0.0385 µM and 0.134 µM.
For `COc1cc(F)c2nnc3c(C)nc(-c4cc(C)ccc4F)n3c2c1` [Example 75, 6-fluoro-1-(2-fluoro-5-methylphenyl)-8-methoxy-3-methylimidazo[5,1-c][1,2,4]benzotriazine] the same measures were 0.015 µM and 0.0139 µM.
For the compound `COc1cc(F)cc2c1nnc1c(C)nc(-c3cc(C)ccc3F)n12` [Example 105, 8-fluoro-1-(2-fluoro-5-methylpehnyl)-6-methoxy-3-methylimidazo[5,1-c][1,2,4]benzotriazine], the IC50 on PDE10A (setting [1]) was 0.00713 µM.
The same measure, in the same setting: as for `COc1cc(F)cc2c1nnc1c(C)nc(-c3cc(F)ccc3Cl)n12` [Example 118, 1-(2-chloro-5-fluorophenyl)-8-fluoro-6-methoxy-3-methylimidazo[5,1-c][1,2,4]benzotriazine], the figure is 0.00202 µM; as for `Cc1cnccc1-c1nc(C)c2nnc3c(Cl)cc(C(F)(F)F)cc3n12` [Example 132, 6-Chloro-3-methyl-1-(3-methylpyridin-4-yl)-8-(trifluoromethyl)imidazo[5,1-c][1,2,4]benzotriazine], 0.0327 µM.
Turning to `COc1ccc(Cl)cc1-c1nc(C)c2nnc3c(OC)cc(C(F)(F)F)cc3n12` [Example 142, 1-(5-Chloro-2-methoxyphenyl)-6-methoxy-3-methyl-8-(trifluoromethyl)benzo[e]imidazo[5,1-c][1,2,4]triazine], at PDE10A (setting [1]), the concentration for half-maximal inhibition (IC50) was 0.0106 µM.
